Laboratory results reported in the NIST ThermoML archive (doi:10.1007/s10765-006-0033-6).

Assay: compressibility factor (dimensionless); xn = mol fraction of the nth substance listed
Details: Gas, Other PVT measurement

[N-]=[N+]=O [nitrous oxide] + FCF
Details	compressibility factor
303.23 K, 131 kPa, x1 = 0.2958	0.9882
303.23 K, 133.7 kPa, x1 = 0.3826	0.9887
303.23 K, 194.9 kPa, x1 = 0.2958	0.9827
303.23 K, 199.1 kPa, x1 = 0.3826	0.9838
303.23 K, 213.1 kPa, x1 = 0.7326	0.9893
303.23 K, 235.1 kPa, x1 = 0.6589	0.9847
303.23 K, 289.2 kPa, x1 = 0.2958	0.9746
303.23 K, 295.5 kPa, x1 = 0.3826	0.9761
303.23 K, 316.4 kPa, x1 = 0.7326	0.9819
303.23 K, 349.2 kPa, x1 = 0.6589	0.9776
303.23 K, 356.8 kPa, x1 = 0.448	0.9708
303.23 K, 427.1 kPa, x1 = 0.2958	0.9622
303.23 K, 436.8 kPa, x1 = 0.3826	0.9645
303.23 K, 468.8 kPa, x1 = 0.7326	0.9723
303.23 K, 516.7 kPa, x1 = 0.6589	0.9669
303.23 K, 526.5 kPa, x1 = 0.448	0.9574
303.23 K, 626.7 kPa, x1 = 0.2958	0.9437
303.23 K, 641.7 kPa, x1 = 0.3826	0.947
303.23 K, 691.2 kPa, x1 = 0.7326	0.9582
303.23 K, 760.2 kPa, x1 = 0.6589	0.9509
303.23 K, 771.2 kPa, x1 = 0.448	0.9375
303.23 K, 910.7 kPa, x1 = 0.2958	0.9166
303.23 K, 933.9 kPa, x1 = 0.3826	0.9213
303.23 K, 1012.1 kPa, x1 = 0.7326	0.9378
303.23 K, 1108.8 kPa, x1 = 0.6589	0.927
303.23 K, 1117.6 kPa, x1 = 0.448	0.9081
303.23 K, 1303.4 kPa, x1 = 0.2958	0.8768
303.23 K, 1340.2 kPa, x1 = 0.3826	0.8837
303.23 K, 1465.6 kPa, x1 = 0.7326	0.9077
303.23 K, 1593.4 kPa, x1 = 0.448	0.8653
303.23 K, 1596.2 kPa, x1 = 0.6589	0.892
303.23 K, 1822 kPa, x1 = 0.2958	0.8193
303.23 K, 1881.5 kPa, x1 = 0.3826	0.8292
303.23 K, 2086.1 kPa, x1 = 0.7326	0.8636
303.23 K, 2214.2 kPa, x1 = 0.448	0.8037
303.23 K, 2252 kPa, x1 = 0.6589	0.8412
303.23 K, 2454.7 kPa, x1 = 0.2958	0.7378
303.23 K, 2551.4 kPa, x1 = 0.3826	0.7516
303.23 K, 2892.7 kPa, x1 = 0.7326	0.8004
303.23 K, 2954.5 kPa, x1 = 0.448	0.7169
303.23 K, 3079.5 kPa, x1 = 0.6589	0.7688
303.23 K, 3848.9 kPa, x1 = 0.7326	0.7119
303.23 K, 4005.3 kPa, x1 = 0.6589	0.6684
323.44 K, 159 kPa, x1 = 0.5714	0.9902
323.44 K, 237 kPa, x1 = 0.5714	0.9864
323.44 K, 254.6 kPa, x1 = 0.745	0.9868
323.44 K, 352.4 kPa, x1 = 0.5714	0.9806
323.44 K, 378.8 kPa, x1 = 0.745	0.9812
323.44 K, 522.4 kPa, x1 = 0.5714	0.9714
323.44 K, 561.8 kPa, x1 = 0.745	0.9727
323.44 K, 770.4 kPa, x1 = 0.5714	0.9577
323.44 K, 829.3 kPa, x1 = 0.745	0.9598
323.44 K, 1128 kPa, x1 = 0.5714	0.9372
323.44 K, 1215.8 kPa, x1 = 0.745	0.9406
323.44 K, 1633.3 kPa, x1 = 0.5714	0.9071
323.44 K, 1764.2 kPa, x1 = 0.745	0.9123
323.44 K, 2325.6 kPa, x1 = 0.5714	0.8633
323.44 K, 2519.5 kPa, x1 = 0.745	0.8708
323.44 K, 3228.5 kPa, x1 = 0.5714	0.8011
323.44 K, 3513.7 kPa, x1 = 0.745	0.8117
323.44 K, 4726.6 kPa, x1 = 0.745	0.7299
323.45 K, 119.4 kPa, x1 = 0.4108	0.9909
323.45 K, 128.6 kPa, x1 = 0.3236	0.9894
323.45 K, 141.9 kPa, x1 = 0.2465	0.9883
323.45 K, 178 kPa, x1 = 0.4108	0.9879
323.45 K, 191.7 kPa, x1 = 0.3236	0.986
323.45 K, 211.5 kPa, x1 = 0.2465	0.984
323.45 K, 265 kPa, x1 = 0.4108	0.9831
323.45 K, 285.1 kPa, x1 = 0.3236	0.9802
323.45 K, 314.1 kPa, x1 = 0.2465	0.9771
323.45 K, 393.4 kPa, x1 = 0.4108	0.9754
323.45 K, 422.8 kPa, x1 = 0.3236	0.9714
323.45 K, 464.8 kPa, x1 = 0.2465	0.9664
323.45 K, 581.5 kPa, x1 = 0.4108	0.9636
323.45 K, 623.6 kPa, x1 = 0.3236	0.9578
323.45 K, 683.5 kPa, x1 = 0.2465	0.9499
323.45 K, 854.1 kPa, x1 = 0.4108	0.946
323.45 K, 912.9 kPa, x1 = 0.3236	0.9372
323.45 K, 996.3 kPa, x1 = 0.2465	0.9254
323.45 K, 1242.3 kPa, x1 = 0.4108	0.9198
323.45 K, 1321.6 kPa, x1 = 0.3236	0.9069
323.45 K, 1433.4 kPa, x1 = 0.2465	0.8899
323.45 K, 1781.4 kPa, x1 = 0.4108	0.8816
323.45 K, 1881.4 kPa, x1 = 0.3236	0.8629
323.45 K, 2021.2 kPa, x1 = 0.2465	0.8388
323.45 K, 2499.7 kPa, x1 = 0.4108	0.8269
323.45 K, 2610.3 kPa, x1 = 0.3236	0.8003
343.77 K, 139.1 kPa, x1 = 0.2266	0.9898
